“And” between values parts separate entries of the source, which are not always exact repeats. Equal entries are not always repeated. Toxic doses and inconclusive results are not listed. Cut-off read from the data, not from the text of the source: active = T/C of 150% or more; inactive = T/C below 125%.
Tested on: L1210 leukemia ip in BDF1 mice, survival T/C
Assay: NCI In Vivo Anticancer Drug Screen. Data for tumor model L1210 Leukemia (intraperitoneal) in B6D2F1 (BDF1) mice
Conditions: endpoint: mean survival time, higher = longer survival
Procedure, shortened: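 In this screen, tumor-bearing mice given compound are compared to those given vehicle, and their survival values are reported as a treated-to-control quotient.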

[1] = dose: 100.0 mg/kg/injection, schedule: Q01DX001 (ip), vehicle: saline
[2] = dose: 200.0 mg/kg/injection, schedule: Q01DX001 (ip), vehicle: saline
[3] = dose: 400.0 mg/kg/injection, schedule: Q01DX001 (ip), vehicle: saline
[4] = dose: 75.0 mg/kg/injection, schedule: Q01DX001 (ip), vehicle: saline
[5] = dose: 100.0 mg/kg/injection, schedule: Q01DX001 (ip), vehicle: Klucel (hydroxypropylcellulose) (HPC)
[6] = dose: 200.0 mg/kg/injection, schedule: Q01DX001 (ip), vehicle: Klucel (hydroxypropylcellulose) (HPC)
[7] = dose: 100.0 mg/kg/injection, schedule: Q04DX003 (ip), vehicle: saline with Tween-80
[8] = dose: 200.0 mg/kg/injection, schedule: Q04DX003 (ip), vehicle: saline with Tween-80
[9] = dose: 400.0 mg/kg/injection, schedule: Q04DX003 (ip), vehicle: saline with Tween-80
[10] = dose: 100.0 mg/kg/injection, schedule: Q01DX009 (ip), vehicle: water
[11] = dose: 200.0 mg/kg/injection, schedule: Q01DX009 (ip), vehicle: water
[12] = dose: 400.0 mg/kg/injection, schedule: Q01DX009 (ip), vehicle: water
[13] = dose: 100.0 mg/kg/injection, schedule: Q01DX001 (ip), vehicle: carboxymethylcellulose (CMC)
[14] = dose: 200.0 mg/kg/injection, schedule: Q01DX001 (ip), vehicle: carboxymethylcellulose (CMC)
[15] = dose: 400.0 mg/kg/injection, schedule: Q01DX001 (ip), vehicle: carboxymethylcellulose (CMC)

Measured: T/C

CCN(CC)C(=O)CSC#N
inactive: dose: 6.25 mg/kg/injection, schedule: Q04DX002 (ip), vehicle: other 88 % of control | dose: 12.5 mg/kg/injection, schedule: Q04DX002 (ip), vehicle: other 103 % of control

NCC(O)c1ccc(O)cc1 (stereo not given)
inactive: dose: 50.0 mg/kg/injection, schedule: Q04DX003 (ip), vehicle: saline 101 % of control | [1] 93 % of control | dose: 100.0 mg/kg/injection, schedule: Q04DX003 (ip), vehicle: saline 97 % of control | [2] 93 % of control | dose: 200.0 mg/kg/injection, schedule: Q04DX003 (ip), vehicle: saline 98 % of control | [3] 101 % of control

C=CCC1(CCCC)C(=O)NC(=O)NC1=O
inactive: [4] 89 % of control | dose: 150.0 mg/kg/injection, schedule: Q01DX001 (ip), vehicle: saline 105 % of control

CC(C)(C)c1ccc(SCCN=C(N)CSS(=O)(=O)O)cc1
inactive: dose: 3.13 mg/kg/injection, schedule: Q01DX009 (ip), vehicle: Klucel (hydroxypropylcellulose) (HPC) 91 % of control | dose: 3.13 mg/kg/injection, schedule: Q04DX002 (ip), vehicle: Klucel (hydroxypropylcellulose) (HPC) 98 % of control | dose: 6.25 mg/kg/injection, schedule: Q01DX009 (ip), vehicle: Klucel (hydroxypropylcellulose) (HPC) 102 % of control | dose: 6.25 mg/kg/injection, schedule: Q04DX002 (ip), vehicle: Klucel (hydroxypropylcellulose) (HPC) 107 % of control | dose: 12.5 mg/kg/injection, schedule: Q04DX002 (ip), vehicle: Klucel (hydroxypropylcellulose) (HPC) 98 % of control and 106 % of control

NC(=O)N/N=C\C=N/NC(N)=O
inactive: [5] 92 % of control | [6] 92 % of control

O=C(O)CSc1ccc2ccccc2c1
inactive: dose: 100.0 mg/kg/injection, schedule: Q04DX002 (ip), vehicle: Klucel (hydroxypropylcellulose) (HPC) 89 % of control | dose: 200.0 mg/kg/injection, schedule: Q04DX002 (ip), vehicle: Klucel (hydroxypropylcellulose) (HPC) 111 % of control | dose: 400.0 mg/kg/injection, schedule: Q04DX002 (ip), vehicle: Klucel (hydroxypropylcellulose) (HPC) 108 % of control

Clc1c(Cl)c(Cl)c2n[nH]nc2c1Cl
inactive: [4] 96 % of control

Nc1ccc(C(=O)N/N=C/c2ccccc2[N+](=O)[O-])cc1
inactive: dose: 12.5 mg/kg/injection, schedule: Q01DX009 (ip), vehicle: other 91 % of control | dose: 25.0 mg/kg/injection, schedule: Q01DX009 (ip), vehicle: other 93 % of control

O=C1OC(c2ccccc2)=C/C1=C/c1ccc(Cl)cc1
inactive: dose: 25.0 mg/kg/injection, schedule: Q04DX003 (ip), vehicle: alcohol 88 % of control | dose: 50.0 mg/kg/injection, schedule: Q04DX003 (ip), vehicle: alcohol 90 % of control | dose: 100.0 mg/kg/injection, schedule: Q01DX001 (ip), vehicle: alcohol 86 % of control | dose: 100.0 mg/kg/injection, schedule: Q04DX003 (ip), vehicle: alcohol 87 % of control | dose: 150.0 mg/kg/injection, schedule: Q01DX009 (ip), vehicle: alcohol 89 % of control | dose: 150.0 mg/kg/injection, schedule: Q04DX003 (ip), vehicle: alcohol 87 % of control | dose: 225.0 mg/kg/injection, schedule: Q01DX009 (ip), vehicle: alcohol 86 % of control | dose: 225.0 mg/kg/injection, schedule: Q04DX003 (ip), vehicle: alcohol 91 % of control | dose: 335.0 mg/kg/injection, schedule: Q01DX009 (ip), vehicle: alcohol 107 % of control | dose: 335.0 mg/kg/injection, schedule: Q04DX003 (ip), vehicle: alcohol 90 % of control

COc1c(Cl)cc2c(c1OC)N(C)C1N3C(=O)C4(C)SSC3(CC21O)C(=O)N4C (stereo not given)
inactive: dose: 0.12 mg/kg/injection, schedule: Q01DX009 (ip), vehicle: Klucel (hydroxypropylcellulose) (HPC) 100 % of control | dose: 0.25 mg/kg/injection, schedule: Q01DX009 (ip), vehicle: Klucel (hydroxypropylcellulose) (HPC) 101 % of control | dose: 0.5 mg/kg/injection, schedule: Q01DX009 (ip), vehicle: Klucel (hydroxypropylcellulose) (HPC) 108 % of control | dose: 1.0 mg/kg/injection, schedule: Q01DX009 (ip), vehicle: Klucel (hydroxypropylcellulose) (HPC) 111 % of control

Cc1cc(S(N)(=O)=O)ccc1Cl
inactive: [7] 93 % of control | [8] 93 % of control | [9] 104 % of control

C[n+]1c(O)c(C(=O)CCl)n2cc([N+](=O)[O-])ccc21
inactive: [1] 100 % of control | [2] 92 % of control | [3] 101 % of control

COc1ccc(CCS(=O)(=O)N=[N+]=[N-])cc1
inactive: [7] 104 % of control | [8] 116 % of control | [9] 112 % of control

COC1(c2ccc(Br)cc2)OC1(C)C (stereo not given)
inactive: dose: 25.0 mg/kg/injection, schedule: Q01DX009 (ip), vehicle: water 95 % of control | dose: 50.0 mg/kg/injection, schedule: Q01DX009 (ip), vehicle: water 101 % of control | [10] 106 % of control | [11] 107 % of control | [12] 101 % of control

COc1cccc(/C=N/N2CCN(/N=C/c3cccc(OC)c3OC)CC2)c1OC
inactive: [13] 94 % of control | [14] 98 % of control | [15] 100 % of control

CCCCNC(=O)CC(C)C(=O)O (stereo not given)
inactive: dose: 100.0 mg/kg/injection, schedule: Q01DX009 (ip), vehicle: saline with Tween-80 100 % of control | dose: 200.0 mg/kg/injection, schedule: Q01DX009 (ip), vehicle: saline with Tween-80 98 % of control | dose: 400.0 mg/kg/injection, schedule: Q01DX009 (ip), vehicle: saline with Tween-80 100 % of control

C=C(Br)CNC(=O)NCCCl
inactive: [5] 90 % of control | [6] 96 % of control

CCCO[Si](C)(C)CCl
inactive: dose: 50.0 mg/kg/injection, schedule: Q01DX001 (ip), vehicle: carboxymethylcellulose (CMC) 92 % of control | [13] 92 % of control | [14] 92 % of control | [15] 98 % of control

NC1CCS(=O)(=O)C1 (stereo not given)
inactive: [1] 95 % of control | [2] 98 % of control | [3] 101 % of control

O=C(NO)c1cccnc1
inactive: dose: 100.0 mg/kg/injection, schedule: Q01DX009 (ip), vehicle: Klucel (hydroxypropylcellulose) (HPC) 97 % of control | dose: 200.0 mg/kg/injection, schedule: Q01DX009 (ip), vehicle: Klucel (hydroxypropylcellulose) (HPC) 102 % of control | dose: 270.0 mg/kg/injection, schedule: Q01DX009 (ip), vehicle: acetone 102 % of control | dose: 270.0 mg/kg/injection, schedule: Q01DX015 (ip), vehicle: water 121 % of control | dose: 400.0 mg/kg/injection, schedule: Q01DX001 (ip), vehicle: water 99 % of control | dose: 400.0 mg/kg/injection, schedule: Q01DX009 (ip), vehicle: Klucel (hydroxypropylcellulose) (HPC) 101 % of control | dose: 400.0 mg/kg/injection, schedule: Q01DX009 (ip), vehicle: acetone 109 % of control | dose: 600.0 mg/kg/injection, schedule: Q01DX001 (ip), vehicle: water 106 % of control | dose: 600.0 mg/kg/injection, schedule: Q01DX009 (ip), vehicle: acetone 100 % of control | dose: 800.0 mg/kg/injection, schedule: Q01DX001 (ip), vehicle: water 99 % of control | dose: 800.0 mg/kg/injection, schedule: Q01DX009 (ip), vehicle: Klucel (hydroxypropylcellulose) (HPC) 109 % of control | dose: 800.0 mg/kg/injection, schedule: Q01DX009 (ip), vehicle: acetone 103 % of control | dose: 800.0 mg/kg/injection, schedule: Q01DX015 (ip), vehicle: water 110 % of control and 117 % of control

O=C1c2ccccc2C(=O)N1c1cc(OCc2ccccc2)cc(OCc2ccccc2)c1
inactive: [10] 94 % of control | dose: 100.0 mg/kg/injection, schedule: Q04DX003 (ip), vehicle: water 104 % of control | [11] 91 % of control | dose: 200.0 mg/kg/injection, schedule: Q04DX003 (ip), vehicle: water 102 % of control | [12] 91 % of control | dose: 400.0 mg/kg/injection, schedule: Q04DX003 (ip), vehicle: water 102 % of control

O/N=C1\c2ccccc2-c2cc(Cl)ccc21
inactive: [13] 94 % of control | [14] 109 % of control | [15] 103 % of control

CN(N(P(N)(Cl)(c1ccccc1)c1ccccc1)P(N)(Cl)(c1ccccc1)c1ccccc1)P(N)(Cl)(c1ccccc1)c1ccccc1
inactive: dose: 100.0 mg/kg/injection, schedule: Q01DX001 (ip), vehicle: steriod suspending solution 113 % of control | dose: 200.0 mg/kg/injection, schedule: Q01DX001 (ip), vehicle: steriod suspending solution 108 % of control

— PubChem BioAssay AID248 (DTP/NCI, 2004)
